Read-outs that look alike come from different tables or passages of the source.
How the values were obtained:
[1] = tested on: endothelial tube formation in co-cultures of ECFCs and ADSCs treated with VEGF; assay: cells; assay type: cell-based, human; details: for IC50: read-out: VEGF_ADSC\ECFC Angio CD31 TubeArea summarized IC50
HeLa cells = assay: cells; assay type: cell-based;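 on Hela CellCycMod PI 4N summarized IC50: value tracks stimulation of 4N DNA content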
DLD-1 = assay: cells; assay type: cell-based; details: basal; for IC50: read-out: Basal_Viability ATP DLD-1 summarized IC50
SW480 = assay: cells; assay type: cell-based; details: basal; for IC50: read-out: Basal_Viability ATP SW480 summarized IC50
HCT116 = assay: cells; assay type: cell-based; details: basal; for IC50: read-out: Basal_Viability ATP HCT116 summarized IC50
[2] = tested on: HCT116 cells treated with a GSK3β inhibitor; assay: cells; assay type: cell-based; details: for IC50: read-out: GSK3b inh pretreated_Viability ATP HCT116 summarized IC50
Colo320 = assay: cells; assay type: cell-based; details: basal; for IC50: read-out: Basal_Viability ATP Colo 320 summarized IC50
HT-29 = assay: cells; assay type: cell-based; details: basal; for IC50: read-out: Basal_Viability ATP HT-29 summarized IC50
RKO = assay: cells; assay type: cell-based; details: basal; for IC50: read-out: Basal_Viability ATP RKO summarized IC50
SNU-C1 = assay: cells; assay type: cell-based; details: basal; for IC50: read-out: Basal_Viability ATP SNU-C1 summarized IC50
hp70S6K1 (RPS6KB1) = biological target: T1, hp70S6K1 (RPS6KB1) (Homo sapiens, UniProt P23443); assay: Cerep LANCE kinase assay hp70S6K1 (S1 assay 31); assay type: biochemical; details: for IC50: read-out: hp70S6K1 LANCE summarized IC50
T1 construct: purchased Cerep (LANCE kinase assay platform, contract assay)
T1 sequence (P23443 whole entry): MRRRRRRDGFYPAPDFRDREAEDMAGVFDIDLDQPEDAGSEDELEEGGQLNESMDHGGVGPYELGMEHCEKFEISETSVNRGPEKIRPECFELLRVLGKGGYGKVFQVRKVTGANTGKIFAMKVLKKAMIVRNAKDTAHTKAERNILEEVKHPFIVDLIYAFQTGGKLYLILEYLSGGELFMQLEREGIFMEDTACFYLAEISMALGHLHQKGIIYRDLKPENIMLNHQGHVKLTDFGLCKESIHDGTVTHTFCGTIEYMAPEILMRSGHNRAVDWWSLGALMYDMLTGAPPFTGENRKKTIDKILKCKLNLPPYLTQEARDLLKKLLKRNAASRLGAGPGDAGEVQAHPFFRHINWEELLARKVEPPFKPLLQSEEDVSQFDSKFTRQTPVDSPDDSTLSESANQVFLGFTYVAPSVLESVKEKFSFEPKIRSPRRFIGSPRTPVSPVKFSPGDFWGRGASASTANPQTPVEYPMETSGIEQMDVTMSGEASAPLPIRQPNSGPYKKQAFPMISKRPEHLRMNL

hKDR = biological target: T2, hKDR (Homo sapiens, UniProt P35968); assay: Cerep LANCE kinase assay hKDR (S1 assay 32); assay type: biochemical; details: for IC50: read-out: hKDR LANCE summarized IC50
T2 construct: purchased Cerep (LANCE kinase assay platform, contract assay)
T2 sequence (P35968 20-1356): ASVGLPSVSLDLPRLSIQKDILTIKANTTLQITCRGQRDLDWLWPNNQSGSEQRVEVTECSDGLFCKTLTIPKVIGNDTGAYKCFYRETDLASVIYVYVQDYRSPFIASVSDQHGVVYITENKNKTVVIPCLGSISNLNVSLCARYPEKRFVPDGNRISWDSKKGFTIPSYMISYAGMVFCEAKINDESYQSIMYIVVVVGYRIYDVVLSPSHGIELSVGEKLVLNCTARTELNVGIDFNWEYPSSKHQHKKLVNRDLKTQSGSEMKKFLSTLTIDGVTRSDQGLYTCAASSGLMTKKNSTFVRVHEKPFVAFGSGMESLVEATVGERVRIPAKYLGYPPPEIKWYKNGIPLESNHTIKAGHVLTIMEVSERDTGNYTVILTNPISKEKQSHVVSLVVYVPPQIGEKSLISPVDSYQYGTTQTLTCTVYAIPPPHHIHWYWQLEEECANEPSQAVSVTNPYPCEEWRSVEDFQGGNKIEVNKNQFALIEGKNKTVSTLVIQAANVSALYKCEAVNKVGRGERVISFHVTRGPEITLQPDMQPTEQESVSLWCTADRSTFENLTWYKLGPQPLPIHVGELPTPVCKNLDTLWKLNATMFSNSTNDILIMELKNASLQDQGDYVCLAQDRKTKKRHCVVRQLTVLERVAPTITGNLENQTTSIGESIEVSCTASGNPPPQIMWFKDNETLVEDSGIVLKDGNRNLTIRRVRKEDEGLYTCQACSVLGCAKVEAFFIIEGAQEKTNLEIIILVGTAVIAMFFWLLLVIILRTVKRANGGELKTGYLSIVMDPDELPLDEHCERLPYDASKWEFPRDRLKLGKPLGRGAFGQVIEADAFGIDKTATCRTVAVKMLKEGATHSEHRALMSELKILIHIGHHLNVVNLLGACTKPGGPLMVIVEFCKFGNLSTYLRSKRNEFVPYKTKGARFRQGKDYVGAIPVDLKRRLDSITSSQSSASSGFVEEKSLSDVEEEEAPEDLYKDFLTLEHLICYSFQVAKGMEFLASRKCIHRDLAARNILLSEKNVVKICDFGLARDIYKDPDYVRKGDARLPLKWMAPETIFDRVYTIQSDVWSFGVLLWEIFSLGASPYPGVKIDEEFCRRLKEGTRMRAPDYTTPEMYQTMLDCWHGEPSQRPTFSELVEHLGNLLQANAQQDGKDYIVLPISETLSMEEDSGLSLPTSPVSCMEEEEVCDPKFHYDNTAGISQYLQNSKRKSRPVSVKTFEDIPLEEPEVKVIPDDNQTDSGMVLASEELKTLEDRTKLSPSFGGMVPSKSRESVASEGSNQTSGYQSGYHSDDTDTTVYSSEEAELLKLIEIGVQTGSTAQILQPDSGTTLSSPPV

hJAK2 = biological target: T3, hJAK2 (Homo sapiens, UniProt O60674); assay: Cerep LANCE kinase assay hJAK2 (S1 assay 33); assay type: biochemical; details: for IC50: read-out: hJAK2 LANCE summarized IC50
T3 construct: purchased Cerep (LANCE kinase assay platform, contract assay)
T3 sequence (O60674 whole entry): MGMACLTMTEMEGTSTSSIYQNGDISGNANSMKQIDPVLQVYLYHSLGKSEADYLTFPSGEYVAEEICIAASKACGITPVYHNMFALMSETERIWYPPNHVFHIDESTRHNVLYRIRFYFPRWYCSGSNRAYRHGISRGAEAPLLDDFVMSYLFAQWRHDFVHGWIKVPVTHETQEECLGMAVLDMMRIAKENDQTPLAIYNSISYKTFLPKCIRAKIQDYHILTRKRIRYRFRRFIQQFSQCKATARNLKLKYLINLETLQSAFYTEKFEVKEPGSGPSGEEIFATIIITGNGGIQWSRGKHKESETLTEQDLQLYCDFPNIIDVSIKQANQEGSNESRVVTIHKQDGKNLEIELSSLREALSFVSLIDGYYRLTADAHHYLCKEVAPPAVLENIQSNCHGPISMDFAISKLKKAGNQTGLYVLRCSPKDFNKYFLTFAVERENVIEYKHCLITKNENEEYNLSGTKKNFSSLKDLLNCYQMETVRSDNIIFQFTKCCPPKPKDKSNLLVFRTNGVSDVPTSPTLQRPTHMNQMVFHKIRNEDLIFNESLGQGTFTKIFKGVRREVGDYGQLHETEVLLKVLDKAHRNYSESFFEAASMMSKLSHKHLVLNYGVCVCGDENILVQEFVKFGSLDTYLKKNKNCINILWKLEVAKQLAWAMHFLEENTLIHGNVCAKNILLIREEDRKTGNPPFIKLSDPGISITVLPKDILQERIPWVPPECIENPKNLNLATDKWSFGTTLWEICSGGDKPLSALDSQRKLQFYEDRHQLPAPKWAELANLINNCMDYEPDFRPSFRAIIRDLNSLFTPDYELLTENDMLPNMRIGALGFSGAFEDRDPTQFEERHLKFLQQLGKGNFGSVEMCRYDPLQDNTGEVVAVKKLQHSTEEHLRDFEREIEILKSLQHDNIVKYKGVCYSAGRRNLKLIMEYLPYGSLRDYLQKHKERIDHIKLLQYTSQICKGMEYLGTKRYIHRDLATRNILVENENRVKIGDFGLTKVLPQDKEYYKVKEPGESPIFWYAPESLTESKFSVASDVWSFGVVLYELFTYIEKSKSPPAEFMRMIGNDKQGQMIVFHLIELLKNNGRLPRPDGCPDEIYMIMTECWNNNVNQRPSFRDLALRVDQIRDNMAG

hGSK3b = biological target: T4, hGSK3b (Homo sapiens, UniProt P49841); assay: Cerep LANCE kinase assay hGSK3b (S1 assay 34); assay type: biochemical; details: for IC50: read-out: hGSK3b LANCE summarized IC50
T4 construct: purchased Cerep (LANCE kinase assay platform, contract assay)
T4 sequence (P49841 whole entry): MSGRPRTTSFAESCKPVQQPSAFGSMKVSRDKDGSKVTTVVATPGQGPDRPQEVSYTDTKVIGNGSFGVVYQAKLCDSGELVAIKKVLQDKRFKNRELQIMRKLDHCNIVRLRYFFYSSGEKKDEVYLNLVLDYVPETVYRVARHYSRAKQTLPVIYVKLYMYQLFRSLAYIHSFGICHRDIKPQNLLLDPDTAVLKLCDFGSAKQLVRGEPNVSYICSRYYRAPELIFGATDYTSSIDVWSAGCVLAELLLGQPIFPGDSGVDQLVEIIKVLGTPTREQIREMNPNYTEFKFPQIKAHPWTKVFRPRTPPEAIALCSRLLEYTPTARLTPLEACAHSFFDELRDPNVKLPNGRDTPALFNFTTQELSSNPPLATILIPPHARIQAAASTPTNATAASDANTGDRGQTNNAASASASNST

hFLT3 = biological target: T5, hFLT3 (Homo sapiens, UniProt P36888); assay: Cerep LANCE kinase assay hFLT3 (S1 assay 35); assay type: biochemical; details: for IC50: read-out: hFLT3 LANCE summarized IC50
T5 construct: purchased Cerep (LANCE kinase assay platform, contract assay)
T5 sequence (P36888 27-993): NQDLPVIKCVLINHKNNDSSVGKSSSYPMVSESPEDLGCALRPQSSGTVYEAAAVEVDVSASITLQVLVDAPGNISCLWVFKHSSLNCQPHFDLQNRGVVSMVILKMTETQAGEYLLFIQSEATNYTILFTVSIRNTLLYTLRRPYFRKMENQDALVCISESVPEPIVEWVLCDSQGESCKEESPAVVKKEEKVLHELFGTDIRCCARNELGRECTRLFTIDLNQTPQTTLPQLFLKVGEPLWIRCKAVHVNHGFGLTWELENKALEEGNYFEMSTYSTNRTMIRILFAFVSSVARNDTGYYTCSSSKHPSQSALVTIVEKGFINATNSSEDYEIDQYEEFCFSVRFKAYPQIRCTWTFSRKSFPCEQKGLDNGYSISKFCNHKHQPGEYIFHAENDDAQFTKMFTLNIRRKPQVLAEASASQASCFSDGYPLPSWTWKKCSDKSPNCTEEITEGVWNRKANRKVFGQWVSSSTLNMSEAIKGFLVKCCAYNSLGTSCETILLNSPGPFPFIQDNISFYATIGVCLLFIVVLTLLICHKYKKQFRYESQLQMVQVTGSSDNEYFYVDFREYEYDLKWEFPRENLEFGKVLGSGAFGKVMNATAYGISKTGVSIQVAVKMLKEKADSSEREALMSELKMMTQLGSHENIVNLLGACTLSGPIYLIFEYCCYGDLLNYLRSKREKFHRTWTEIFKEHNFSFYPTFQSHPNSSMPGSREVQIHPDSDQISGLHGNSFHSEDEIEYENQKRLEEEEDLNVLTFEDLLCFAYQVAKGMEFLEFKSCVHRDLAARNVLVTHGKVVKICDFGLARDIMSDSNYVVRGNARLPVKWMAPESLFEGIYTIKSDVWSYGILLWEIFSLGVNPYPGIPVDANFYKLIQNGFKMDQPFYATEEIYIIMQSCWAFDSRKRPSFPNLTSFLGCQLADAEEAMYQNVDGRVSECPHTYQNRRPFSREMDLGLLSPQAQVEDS

[3] = tested on: ECFC/ADSC co-culture cell nuclei number; details: for IC50: read-out: VEGF_ADSC\ECFC Angio Hoechst NucArea summarized IC50
[4] = assay number 26, GSK3b inhibitor pretreated
[5] = assay number 14, 2N, read-out: Hela CellCycMod PI 2N summarized IC50
[6] = assay number 16, 4N, read-out: Hela CellCycMod PI 4N summarized IC50
[7] = assay number 17, MI, read-out: Hela CellCycMod PI MI summarized IC50
[8] = assay number 18, cell number, read-out: Hela CellCycMod PI Cell Number summarized IC50

| Compound | IC50 [1] [µM] | IC50 (HeLa cells; [5]) [µM] | IC50 (HeLa cells; [6]) [µM] | IC50 (HeLa cells; [7]) [µM] | IC50 (DLD-1; assay number 23) [µM] | IC50 (SW480; assay number 24) [µM] | IC50 (HCT116; assay number 25) [µM] | IC50 [2, 4] [µM] | IC50 (Colo320; assay number 27) [µM] | IC50 (HT-29; assay number 28) [µM] | IC50 (RKO; assay number 29) [µM] | IC50 (SNU-C1; assay number 30) [µM] | IC50 (hp70S6K1 (RPS6KB1); assay number 31) [µM] | IC50 (hKDR; assay number 32) [µM] | IC50 (hJAK2; assay number 33) [µM] | IC50 (hGSK3b; assay number 34) [µM] | IC50 (hFLT3; assay number 35) [µM] | IC50 [3] [µM] | IC50 (HeLa cells; [8]) [µM] | other results |
| --- | --- | --- | --- | --- | --- | --- | --- | --- | --- | --- | --- | --- | --- | --- | --- | --- | --- | --- | --- | --- |
| COc1c(C)c2c(c(O)c1C/C=C(\C)CCC(=O)OCCN1CCOCC1)C(=O)OC2 [NCGC00159459-04] | – | – | – | – | – | – | – | – | – | – | – | – | – | – | – | – | – | – | – | VEGF_ADSC\ECFC Angio CD31 TubeArea IC50/EC50 [1]: 1.2605 µM; Hela CellCycMod PI 2N IC50/EC50 (HeLa cells; assay number 14, 2N): > 10 µM; Hela CellCycMod PI S Phase IC50/EC50 (HeLa cells; assay number 15, S phase): 0.0147 µM; Hela CellCycMod PI 4N IC50/EC50 (HeLa cells; assay number 16, 4N): > 10 µM; Hela CellCycMod PI MI IC50/EC50 (HeLa cells; assay number 17, MI): > 10 µM; Hela CellCycMod PI Cell Number IC50/EC50 (HeLa cells; assay number 18, cell number): > 10 µM; Basal_Viability ATP DLD-1 IC50/EC50 (DLD-1; assay number 23): > 20 µM; Basal_Viability ATP SW480 IC50/EC50 (SW480; assay number 24): 2.5974 µM; Basal_Viability ATP HCT116 IC50/EC50 (HCT116; assay number 25): 0.0672 µM; GSK3b inh pretreated_Viability ATP HCT116 IC50/EC50 [2, 4]: 0.0498 µM; Basal_Viability ATP Colo 320 IC50/EC50 (Colo320; assay number 27): 0.001 µM; Basal_Viability ATP HT-29 IC50/EC50 (HT-29; assay number 28): > 20 µM; Basal_Viability ATP RKO IC50/EC50 (RKO; assay number 29): 0.1648 µM; Basal_Viability ATP SNU-C1 IC50/EC50 (SNU-C1; assay number 30): > 20 µM; hp70S6K1 LANCE IC50/EC50 (hp70S6K1 (RPS6KB1); assay number 31): > 20 µM; hKDR LANCE IC50/EC50 (hKDR; assay number 32): > 20 µM; hJAK2 LANCE IC50/EC50 (hJAK2; assay number 33): > 20 µM; hGSK3b LANCE IC50/EC50 (hGSK3b; assay number 34): > 20 µM; hFLT3 LANCE IC50/EC50 (hFLT3; assay number 35): > 20 µM; VEGF_ADSC\ECFC Angio Hoechst NucArea IC50/EC50 [3]: > 10 µM |
| Oc1c(Cl)cc(Cl)c2cccnc12 [NCGC00095264-04] | 2 | > 10 | > 10 | > 10 | 0.409 | 0.0438 | 0.0475 | 0.0393 | 0.0493 | > 20 | 0.0627 | 0.495 | > 20 | > 20 | > 20 | > 20 | > 20 | > 10 | – | – |
| S=c1nc[nH]c2nc[nH]c12 [NCGC00094717-06] | 0.915 | > 10 | > 10 | > 10 | 0.26 | 1.04 | 0.259 | 1.42 | 1.3 | 0.635 | 0.659 | > 20 | > 20 | > 20 | > 20 | > 20 | > 20 | > 10 | > 10 | – |
| Oc1c(I)cc(I)c2cccnc12 [NCGC00018098-07] | 2.39 | > 10 | > 10 | > 10 | 0.0178 | 0.0036 | 0.041 | – | 0.0213 | 0.705 | 0.0227 | 0.0387 | > 20 | > 20 | > 20 | > 20 | > 20 | > 10 | > 10 | – |
| Cn1cnc([N+](=O)[O-])c1Sc1ncnc2nc[nH]c12 [NCGC00015060-18] | – | – | – | – | – | – | – | – | – | – | – | – | – | – | – | – | – | – | – | IC50/EC50, Hela CellCycMod PI 2N (assay number 14) (HeLa cells; 2N): > 10 µM; IC50/EC50, Hela CellCycMod PI 4N (assay number 16) (HeLa cells; 4N): > 10 µM; IC50/EC50, Hela CellCycMod PI Cell Number (assay number 18) (HeLa cells; Cell Number): > 10 µM; IC50/EC50, Hela CellCycMod PI MI (assay number 17) (HeLa cells; MI): > 10 µM; IC50/EC50, Hela CellCycMod PI S Phase (assay number 15) (HeLa cells; S Phase): > 10 µM; IC50/EC50, Basal_Viability ATP DLD-1 (assay number 23) (DLD-1): 0.3635 µM; IC50/EC50, Basal_Viability ATP SW480 (assay number 24) (SW480): 9.4353 µM; IC50/EC50, Basal_Viability ATP HCT116 (assay number 25) (HCT116): 0.2074 µM; IC50/EC50, GSK3b inh pretreated_Viability ATP HCT116 (assay number 26) ([2]; GSK3b inh pretreated): 0.6232 µM; IC50/EC50, Basal_Viability ATP Colo 320 (assay number 27) (Colo320): 10.3402 µM; IC50/EC50, Basal_Viability ATP HT-29 (assay number 28) (HT-29): > 20 µM; IC50/EC50, Basal_Viability ATP RKO (assay number 29) (RKO): 2.661 µM; IC50/EC50, Basal_Viability ATP SNU-C1 (assay number 30) (SNU-C1): > 20 µM; IC50/EC50, hp70S6K1 LANCE (assay number 31) (hp70S6K1 (RPS6KB1)): > 20 µM; IC50/EC50, hKDR LANCE (assay number 32) (hKDR): > 20 µM; IC50/EC50, hJAK2 LANCE (assay number 33) (hJAK2): > 20 µM; IC50/EC50, hGSK3b LANCE (assay number 34) (hGSK3b): > 20 µM; IC50/EC50, hFLT3 LANCE (assay number 35) (hFLT3): > 20 µM |
